Some test systems named below: COLO 205 colon; HCC-2998 colon; MOLT-4 leukemia; NCI-H460 lung; OVCAR-4 ovarian; SNB-19 CNS; SW-620 colon; UACC-62 melanoma; M19-MEL melanoma; SNB-78 CNS; KM20L2 colon.
What all share (assay): growth of human tumour cells (NCI), 48 h

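Five concentrations, 48 hours, 96-well plates. The concentration for 50% growth inhibition is given as GI50. TGI is the concentration that stops growth completely.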

On to `COc1cc(-c2nn(-c3ccc(NC(=O)c4ccc(Cl)c(C(F)(F)F)c4)cc3)cc2-c2ccncc2)ccc1Cl`, for which the GI50 is 2.05 µM in the assay on COLO 205 colon; 3.22 µM in the assay on HCC-2998 colon; 2.63 µM with MOLT-4 leukemia; 3.43 µM in the assay with NCI-H460 lung; 5.05 µM in the assay with OVCAR-4 ovarian; 4.55 µM with SNB-19 CNS. The GI50 in the assay on SW-620 colon is 3.31 µM; in the assay on UACC-62 melanoma, 2.2 µM. Also, the TGI in the assay on COLO 205 colon is 4.37 µM; in the assay with HCC-2998 colon it was more than 100 µM; in the assay on MOLT-4 leukemia, 8.06 µM; in the assay on NCI-H460 lung, more than 100 µM; with OVCAR-4 ovarian, more than 100 µM; in the assay on SNB-19 CNS, more than 100 µM. For the same compound, the TGI is more than 100 µM in the assay on SW-620 colon and 5.44 µM in the assay with UACC-62 melanoma.
For `CCCCCN(CCCCC)CC(O)c1cc(C)c2ccc3cc(C(C)C)ccc3c2c1` (centres undefined), the GI50 is 2.08 µM with COLO 205 colon; 1.85 µM with HCC-2998 colon; 2.21 µM with MOLT-4 leukemia; 1.97 µM with NCI-H460 lung; 1.92 µM in the assay on OVCAR-4 ovarian; 1.88 µM with SNB-19 CNS. For the same compound, the GI50 in the assay on SW-620 colon was 1.81 µM; with UACC-62 melanoma it was 1.71 µM. The TGI in the assay on COLO 205 colon turned out to be 4.22 µM; with HCC-2998 colon it was 3.4 µM; with MOLT-4 leukemia, 4.72 µM; in the assay with NCI-H460 lung, 4.05 µM; in the assay with OVCAR-4 ovarian, 3.75 µM; with SNB-19 CNS, 3.73 µM. The TGI came out at 3.61 µM in the assay on SW-620 colon and 3.47 µM in the assay with UACC-62 melanoma.
Regarding `Cc1ccc(N=Nc2ccc(N(CCC#N)CCC#N)cc2C)c(Br)c1`, the TGI in the assay with COLO 205 colon is more than 100 µM; in the assay with HCC-2998 colon, 59.4 µM; in the assay with M19-MEL melanoma it was more than 100 µM; in the assay with MOLT-4 leukemia, 45.1 µM; in the assay with OVCAR-4 ovarian, more than 100 µM; in the assay with SNB-19 CNS, more than 100 µM. In addition, the TGI in the assay with SNB-78 CNS, in the assay on SW-620 colon and in the assay on UACC-62 melanoma was more than 100 µM in each case.
As to `CC1(C)CCc2c(c3c(c4c(=O)c(O)c(-c5ccc(O)cc5)oc24)OC(C)(C)CC3)O1`, the GI50 in the assay with COLO 205 colon was more than 100 µM; in the assay with HCC-2998 colon, more than 100 µM; with MOLT-4 leukemia, 37.2 µM; with NCI-H460 lung, 48.7 µM; in the assay with OVCAR-4 ovarian, more than 100 µM; in the assay with SNB-19 CNS, 33.6 µM. The GI50 in the assay on SW-620 colon and in the assay with UACC-62 melanoma was more than 100 µM in each case. Also, the TGI in the assay with COLO 205 colon, with HCC-2998 colon, in the assay on MOLT-4 leukemia, with NCI-H460 lung, in the assay with OVCAR-4 ovarian and in the assay on SNB-19 CNS was more than 100 µM throughout. The TGI with SW-620 colon and with UACC-62 melanoma was more than 100 µM each time.
Take `COc1ccc2c(C3=C(c4cn(C)c5ccccc45)C(=O)NC3=O)cn(C)c2c1`: the GI50 in the assay with COLO 205 colon was 0.0917 µM; in the assay on HCC-2998 colon, 0.41 µM; in the assay on MOLT-4 leukemia, 0.24 µM; with NCI-H460 lung, 0.0982 µM; in the assay with OVCAR-4 ovarian, 0.258 µM; in the assay on SNB-19 CNS it was more than 25 µM. For the same compound, the GI50 was 0.104 µM with SW-620 colon and 0.137 µM in the assay with UACC-62 melanoma. For the same compound, the TGI is 0.323 µM in the assay with COLO 205 colon; more than 25 µM with HCC-2998 colon; more than 24 µM with MOLT-4 leukemia; more than 25 µM in the assay with NCI-H460 lung; more than 25 µM with OVCAR-4 ovarian; more than 25 µM in the assay with SNB-19 CNS. For the same compound, the TGI in the assay on SW-620 colon and with UACC-62 melanoma was more than 25 µM throughout.
For `CC(C)CCC[C@@H](C)[C@H]1CC[C@H]2[C@@H]3CC=C4C[C@@H](C(C(=O)O)C(=O)O)CC[C@]4(C)[C@H]3CC[C@]12C`, the GI50 with COLO 205 colon is 0.111 µM; in the assay on HCC-2998 colon, 0.185 µM; with MOLT-4 leukemia, 0.248 µM; in the assay on NCI-H460 lung, 0.16 µM; in the assay on OVCAR-4 ovarian, 0.207 µM; in the assay with SNB-19 CNS it was 0.237 µM. Besides, the figures for the GI50 in the assay on SW-620 colon and in the assay on UACC-62 melanoma were 0.156 µM and 0.0764 µM, respectively. The TGI in the assay on COLO 205 colon worked out at 0.247 µM; in the assay on HCC-2998 colon it was 1.28 µM; in the assay on MOLT-4 leukemia, 2.05 µM; with NCI-H460 lung it was 0.497 µM; in the assay with OVCAR-4 ovarian, 4.35 µM; with SNB-19 CNS it was 8.91 µM. Besides, the results for the TGI in the assay on SW-620 colon and in the assay on UACC-62 melanoma were 1.25 µM and 0.187 µM, respectively.
Regarding `CC(C)C/C(CC(=O)CCC(=O)Nc1ccccc1[N+](=O)[O-])=N\NC(=O)c1cc2ccccc2cc1O`, the TGI with COLO 205 colon was 69 µM; in the assay with HCC-2998 colon, more than 100 µM; in the assay with KM20L2 colon, more than 100 µM; with M19-MEL melanoma, 65.1 µM; in the assay on MOLT-4 leukemia, more than 100 µM; in the assay with NCI-H460 lung, more than 100 µM. The TGI with SNB-19 CNS was more than 100 µM; in the assay on SW-620 colon it was more than 100 µM; in the assay on UACC-62 melanoma, 80.5 µM.
Take `O=C1C(Cl)=C(Nc2cccc(Cl)c2)C(=O)N1Cc1ccc(Cl)cc1Cl`: the GI50 in the assay on COLO 205 colon is 1 µM; with HCC-2998 colon, 4.23 µM; in the assay with NCI-H460 lung it was 2.68 µM; in the assay with OVCAR-4 ovarian it was 0.508 µM; in the assay with SNB-19 CNS it was 0.842 µM; in the assay with SW-620 colon, 0.115 µM. Also, the GI50 in the assay with UACC-62 melanoma is 0.446 µM. Moreover, the TGI is 16 µM in the assay on COLO 205 colon; 18.8 µM with HCC-2998 colon; more than 100 µM with MOLT-4 leukemia; 21 µM in the assay on NCI-H460 lung; 7.41 µM in the assay with OVCAR-4 ovarian; 18 µM with SNB-19 CNS. Besides, the figures for the TGI in the assay on SW-620 colon and in the assay on UACC-62 melanoma were 18.9 µM and 4.83 µM, respectively.
Take `Cc1nc2ccccc2c(=O)n1-c1ccccc1I`: the TGI with COLO 205 colon, with HCC-2998 colon, in the assay on M19-MEL melanoma, in the assay on MOLT-4 leukemia, in the assay on NCI-H460 lung and with OVCAR-4 ovarian was more than 100 µM in each case. The TGI with SNB-19 CNS, in the assay with SNB-78 CNS, in the assay on SW-620 colon and in the assay on UACC-62 melanoma was more than 100 µM each time.
Regarding `C#Cc1ccc(-n2c(/C=C/c3ccc(C(F)(F)F)cc3)nc3ncccc3c2=O)cc1`, the GI50 with COLO 205 colon was 2.23 µM; with HCC-2998 colon, 1.96 µM; in the assay on MOLT-4 leukemia, 3.01 µM; in the assay on NCI-H460 lung, 1.98 µM; in the assay on OVCAR-4 ovarian, 1.58 µM; in the assay on SNB-19 CNS it was 1.91 µM. In addition, the GI50 in the assay with SW-620 colon is 1.92 µM; in the assay on UACC-62 melanoma, 1.62 µM. Moreover, the TGI with COLO 205 colon came out at 4.48 µM; in the assay on HCC-2998 colon, 3.47 µM; with MOLT-4 leukemia, 8.81 µM; in the assay with NCI-H460 lung, 4.13 µM; in the assay with OVCAR-4 ovarian it was 3.29 µM; in the assay with SNB-19 CNS it was 4.25 µM. The TGI in the assay on SW-620 colon amounted to 3.76 µM; in the assay with UACC-62 melanoma it was 3.61 µM.

The values above are taken from PubChem BioAssay (NCI).
